Results on seven compounds are retold here after patent US12414960B2, “Analogues of oleuropein and oleacein and uses thereof” (Attica Sciences Ltd., priority 2020, dated 2025).

Molecules are shown by their SMILES.

Test [1] can be described thus: ABTS radical cation scavenging assay. It counts as biochemical. To be noted: NS = not statistically significant. The text has this: The method of estimating antioxidant capacity, based on the ability to interact with the ABTS.+ radical cation was first performed by Miller et al. in 1993 (Miller, Nicholas et al., Clinical Science, 1993, 84: 407-412, “A novel method for measuring the antioxidant capacity and its application to monitoring the antioxidant status in premature neonates”). The mechanism of interaction of the antioxidant agents to be examined with the ABTS.+ radical is similar to that of the DPPH. radical, which can be inactivated either by the addition of an electron or by the addition of a hydrogen atom. However, unlike the DPPH. radical, which is a stable radical from the beginning, the ABTS.+ radical must be produced by the oxidation of ABTS. Thus, in order to estimate the antioxidant capacity of a substance, the formation of the ABTS.+ radical must first precede and the addition of the substance to be examined must follow. The addition of the antioxidant agent is performed after the production of the root ABTS.+ to avoid the interaction of the antioxidant agents with the oxidizing agents used for the oxidation of ABTS.
The oxidation of ABTS takes place either through chemical reactions with various reagents or through the action of enzymes such as peroxidases. The ABTS.+ radical from the moment it is formed is stable, has a green color and absorbs at 730 nm. When a substance with antioxidant activity is added to the solution, then the ABTS.+ radical is reduced by the addition of a hydrogen (or electron) atom, resulting in reduced visual absorption.
To assess the antioxidant capacity of the samples, the oxidation of ABTS was performed enzymatically through the action of horseradish peroxidase (HRP), in the presence of H2O2 (FIG. 3)
The anti-oxidant capacity of the GS compounds was evaluated by performing the ABTS assay as previously described (Kouka, Paraskevi et al., Oxid Med Cell Longev. 2019, Article ID 1870965). Briefly, in a total reaction volume of 1 mL in distilled water (dH2O), ABTS.^+ (1 mM), H2O2 (30 μM), and horseradish peroxidase (HRP) (6 μM) in 50 mM phosphate-buffered saline were added. The solution was incubated for 45 min at room temperature (RT) in the dark. Finally, 10 μL of the tested GS compound at various concentrations was added, and the absorbance was monitored on a Hitachi U-1900 radio beam spectrophotometer (serial no. 2023-029; Hitachi Ltd.) at 730 nm. In each experiment, a blank without the HRP was used, while the ABTS.^+ radical solution without the extract was used as the control. The RSC percentage of the tested extracts was calculated using the following equation: RSC (%)=[(ODcontrol−ODcompound)/ODcontrol]×100, where ODcontrol and OD sample are the optical density (OD) values of the control and the test sample, respectively.

The subject of test [2] is HeLa cervical cancer cells. The test is described as follows: XTT cell growth assay, HeLa. The note with it: 24 h, NS = not statistically significant; for inhibition at 50 µM: Homo sapiens, HeLa, read-out: Effectiveness to suppress HeLa cell growth (cell growth inhibition). It counts as cell-based, human. The method in brief:
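HeLa cells in DMEM were plated and incubated 24 h, then exposed 24 h to compound at 5, 10 or 50 μM in serum-free DMEM. After 4 h with XTT reagent, formazan absorbance was read at 450 nm (630 nm reference); serum-free medium served as negative control.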
Background: Tetrazolium dyes change colour on reduction, which living cells bring about.

Turning to `C/C=C1/[C@H](OC2OC(CO)C(O)C(O)C2O)OC=C(C(=O)O)[C@H]1CC(=O)OCCc1ccc(O)c(O)c1` (stereo in doubt) [GS6, (2S,4S,E)-4-(2-(3,4-dihydroxyphenethoxy)-2-oxoethyl)-3-ethylidene-2{[(2R,3S,4R,5R,6S)-3,4,5-trihydroxy-6-(hydroxymethyl)tetrahydro-2H-pyran-2-yl]oxy}-3,4dihydro-2H-pyran-5-carboxylic acid], in test [1], the “ABTS Radical Cation Scavenging Assay IC50” value stood at 8.2 μg extract/mL. The inhibition at 50 µM in test [2] is 48%.
On to `C/C=C1/[C@H](O[C@@H]2O[C@H](CO)[C@@H](O)[C@H](O)[C@H]2O)OC=C(C(=O)OC)[C@H]1CC(=O)OCCc1ccc(O)c(O)c1` [GS1, oleuropein], for which, in test [1], the “ABTS Radical Cation Scavenging Assay IC50” value came out at 20.9 μg extract/mL.
On the same count and under the same terms, to `C/C=C(/C=O)[C@@H](CC=O)CC(=O)OCCc1ccc(O)c(O)c1` [GS17, (3S,4E)-4-formyl-3-(2-oxoethyl)-4-hexenoic acid 2-(3,4-dihydroxyphenyl)ethyl ester, reference compound] belongs 8 μg extract/mL.
Consider `C/C=C(/C=O)[C@@H](CC=O)CC(=O)OCCc1ccc(O)cc1` [GS19, (3S,4E)-4-formyl-3-(2-oxoethyl)-4-hexenoic acid 2-(4-hydroxyphenyl)ethyl ester, reference compound], for which the “ABTS Radical Cation Scavenging Assay IC50” value in test [1] is recorded as 38 μg extract/mL. For the same compound, the inhibition at 50 µM in test [2] came to 79.1%.
Consider `C/C=C(/C=O)[C@@H](CC=O)CC(=O)OCCOc1ccccc1` [GS24, (3S,4E)-4-formyl-3-(2-oxoethyl)-4-hexenoic acid 2-phenoxyethyl ester], for which the inhibition at 50 µM in test [2] came out at 66.6%.
Same read-out and setting: under `C/C=C(/C=O)[C@@H](CC=O)CC(=O)SCCc1ccccc1` [GS27, S-phenethyl (3S,4E)-4-formyl-3-(2-oxoethyl)hex-4-enethioate] stands 39%.
`C/C=C(/C=O)[C@@H](CC=O)CC(=O)OCCCSC` [GS28, (3S,4E)-4-formyl-3-(2-oxoethyl)-4-hexenoic acid 3-(methylthio)propyl ester]: the “Effectiveness to suppress HeLa cell growth (cell growth inhibition)” value in test [2] (50 uM) was “best efficacy”. Besides, the inhibition at 50 µM in test [2] came out at 81%.

One may read the inhibition as the relative decrease from the control value, in per cent.
